Data taken from US11370743B2, “Prodrug derivatives of protein kinase C modulators” (priority 2017, dated 2022).
Where two headings read alike, the source gives them in different places.

Legend:
[1] = Hydrolytic Stability Assay; format: physicochemical; conditions: buffer, HEPES buffered saline, pH 7.4, 10% DMSO, 37° C.; for half-life at 400 μM: read-out: Hydrolytic stability (t1/2); for half-life: read-out: Hydrolytic stability (t1/2) (converted)
Protocol: (§1) Hydrolytic Stability Assay: A solution of 400 μM of parent compound or prodrug derivative with 2,4,6-trimethylphenol (800 μM, 107 μg) in HEPES buffered saline, pH 7.4, with 10% DMSO (total volume 1000 μL) was incubated at 37° C. At appropriate time points, 100 μL was removed, flash frozen, and lyophilized. The lyophilized material was then diluted with 100 μL acetonitrile, filtered, and analyzed by analytical HPLC. The degree of degradation was calculated relative to the area under the curve of the compound of interest compared to the internal standard, 2,4,6-trimethylphenol, as shown in Table 1. Porcine Liver Esterase Assay: A solution of 400 μM of parent compound or prodrug derivative with 2,4,6-trimethylphenol (800 μM, 160 μg) and 60 units of porcine liver esterase in HEPES buffered saline, pH 7.4, with 10% DMSO (total volume 1500 μL) was incubated at 37° C. At appropriate time points, 150 μL was removed, flash frozen, and centrifuged at 10,000 rpm. 140 μL of the supernatant was removed and lyophilized. The lyophilized material was then diluted with 100 μL acetonitrile, filtered, and analyzed by analytical HPLC. The degree of esterase cleavage was calculated relative to the area under the curve of the compound of interest compared to the internal standard, 2,4,6-trimethylphenol.

Novel PKCδ = target: T1, Novel PKCδ (Homo sapiens, UniProt Q05655); test: PKC binding affinity, competitive radioligand assay against 3H-PDBu
T1 construct: a specific full-length PKC isoform was combined with Tris-HCl, KCl, CaCl2
Protocol: (§2) Testing of Compounds for PKC Binding Affinity: A heterogeneous competitive radioligand assay against ^3H-phorbol-12,13-dibutyrate (^3H-PDBu) was used to generate PKC binding constant (Ki) values. In a typical assay, a specific full-length PKC isoform was combined with Tris-HCl, KCl, CaCl2, bovine serum albumin, water, and phosphatidyl serine. Serial dilutions of the respective analog were added to the PKC mixture; in addition, a solution of a compound with known PKC binding affinity and a solution containing no sample were added for reference.
(§3) After addition of [^3H]PDBu, these samples were incubated, filtered through filters previously wetted with polyethyleneimine and the filters were washed with Tris buffer. The filters were then placed into scintillation vials which were then filled with Bio-Safe scintillation fluid and were measured for radioactivity using a Beckman LS 6000SC scintillation counter. Counts per minute (cpm) were averaged for each triplicate dilution. The data was then plotted (cpm vs. log(concentration)) using Prism® by GraphPad Software and an IC50 was determined using that program's built-in one-site competition least squares regression function. Ki values were calculated by the equation: Ki=IC50/(1+[^3H-PDBu])/KD of ^3H-PDBu).

porcine liver esterase = test: Porcine Liver Esterase Assay; format: in vitro ADME; conditions: pig; 60 units of porcine liver esterase, HEPES buffered saline, pH 7.4, 10% DMSO, 37° C.; read-out: Esterase stability (t1/2)* (converted)
Protocol: as §1

C57/bl6 mice = test: In vivo C57/bl6 Mouse CD69 Stimulation Assay; conditions: for CD69 expression versus parent compound: 60 μg dose; for stimulation of CD69 in splenocytes: 24 h post-injection; for bolus toxicity: highest dosage
Protocol: In vivo C57/bl6 Mouse CD69 Stimulation Assay: C57/bl6 mice were obtained from the UCLA Department of Radiation Oncology. Prodrugs of the disclosure were administered intravenously via retro-orbital injection. At 24 h post-injection, mice were sacrificed and the spleens isolated. Spleens were disaggregated by forcing tissue through a steel mesh and then filtered through a 40 μm filter to produce a single-cell suspension. These cells were then stained for flow cytometry to analyze surface expression of relevant markers. Cells were first suspended in 50 μL of a 1:1 mix of 1× PBS and human AB serum (Sigma) and then stained with a combination of anti-mouse CD3-fluorescein isothiocyanate (eBioscience), CD69-phycoerythrin (eBioscience), and CD4-peridinin chlorophyll protein (eBioscience). Following antibody addition, the mixture was incubated at 4° C. for 15 min. The cells were then washed, resuspended in 1× PBS containing 2% paraformaldehyde, and stored at 4° C. Fixed cells were analyzed using an LSRFortessa (BD Biosciences). The resultant list mode files were processed using FlowJo software (version 7.6).

[2] = tested on: T-lymphoblastoid CEM-SS and C-8166 cells; conditions: CEM-SS and C-8166 cell lines; cited from earlier work
Conventional PKCβI = target: T2, Conventional PKCβI (Homo sapiens, UniProt P05771); test: PKC binding affinity, competitive radioligand assay against 3H-PDBu
T2 construct: a specific full-length PKC isoform was combined with Tris-HCl, KCl, CaCl2
Protocol: as §2, §3

PKC = target: T3, PKC; test: Saturation binding of 3H-PDBu; conditions: batch-to-batch variability
T3 construct: rows headed: KD of 3H-PDBu

[3] = intravenous retro-orbital injection
[4] = vs 3H-PDBu, read-out: PKC binding affinity, Ki, Novel PKCδ

T2 sequence (P05771 whole entry, canonical isoform): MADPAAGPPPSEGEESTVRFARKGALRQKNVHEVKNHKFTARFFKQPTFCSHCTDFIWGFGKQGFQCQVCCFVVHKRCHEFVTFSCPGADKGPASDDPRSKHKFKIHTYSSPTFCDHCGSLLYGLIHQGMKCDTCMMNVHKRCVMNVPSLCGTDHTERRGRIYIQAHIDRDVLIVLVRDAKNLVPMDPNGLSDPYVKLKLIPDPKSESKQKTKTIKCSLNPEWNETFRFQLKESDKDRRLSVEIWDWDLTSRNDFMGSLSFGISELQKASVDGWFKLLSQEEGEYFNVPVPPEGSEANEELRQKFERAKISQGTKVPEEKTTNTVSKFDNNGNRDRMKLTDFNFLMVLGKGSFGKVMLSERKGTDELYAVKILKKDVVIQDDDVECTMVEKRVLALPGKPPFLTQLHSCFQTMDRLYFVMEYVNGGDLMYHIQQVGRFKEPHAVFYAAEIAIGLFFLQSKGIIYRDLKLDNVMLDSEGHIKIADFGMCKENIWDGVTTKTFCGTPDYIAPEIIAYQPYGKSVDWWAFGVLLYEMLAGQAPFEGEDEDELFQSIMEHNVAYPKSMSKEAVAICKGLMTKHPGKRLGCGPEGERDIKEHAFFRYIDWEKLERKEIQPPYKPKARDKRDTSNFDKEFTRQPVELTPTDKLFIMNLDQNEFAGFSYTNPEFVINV
T1 sequence (Q05655 whole entry, canonical isoform): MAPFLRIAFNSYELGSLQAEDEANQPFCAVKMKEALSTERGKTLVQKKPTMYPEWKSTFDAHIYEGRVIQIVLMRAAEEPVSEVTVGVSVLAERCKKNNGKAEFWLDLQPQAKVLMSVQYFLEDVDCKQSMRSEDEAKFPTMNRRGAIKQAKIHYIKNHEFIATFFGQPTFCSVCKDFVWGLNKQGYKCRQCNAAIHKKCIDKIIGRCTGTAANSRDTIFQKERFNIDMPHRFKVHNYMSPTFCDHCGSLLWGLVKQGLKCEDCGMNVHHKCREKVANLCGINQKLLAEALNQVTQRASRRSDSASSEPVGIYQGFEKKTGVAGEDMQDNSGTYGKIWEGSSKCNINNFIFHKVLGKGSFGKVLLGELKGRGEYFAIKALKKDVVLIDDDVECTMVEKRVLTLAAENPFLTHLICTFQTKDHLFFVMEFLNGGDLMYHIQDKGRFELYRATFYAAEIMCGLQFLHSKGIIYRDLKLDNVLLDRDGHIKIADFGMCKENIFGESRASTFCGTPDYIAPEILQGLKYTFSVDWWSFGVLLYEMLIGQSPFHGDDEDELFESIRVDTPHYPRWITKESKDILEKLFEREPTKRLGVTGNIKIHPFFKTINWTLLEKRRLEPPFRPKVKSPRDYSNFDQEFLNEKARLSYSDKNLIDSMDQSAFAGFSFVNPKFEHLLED

Which half-life at 400 μM [1] does the source give for CCCCCCCCNC(=O)OCC1=C[C@H]2[C@@H]3C(C)(C)[C@]3(OC(=O)CC34CC5CC(CC(C5)C3)C4)C[C@@H](C)[C@]2(O)[C@@H]2C=C(C)C(=O)[C@@]2(O)C1 [Compound 4f] here?
The half-life at 400 μM was > 168 h.

What about the Ki (Novel PKCδ) of the same compound?
Its Ki is 2900 nM.

What about the half-life at 400 μM (porcine liver esterase) of the same compound?
The half-life at 400 μM was 71 ± 13 h.

For CCCCCCCCCC(=O)OCC1=C[C@H]2[C@@H]3C(C)(C)[C@]3(OC(=O)CC34CC5CC(CC(C5)C3)C4)C[C@@H](C)[C@]2(O)[C@@H]2C=C(C)C(=O)[C@@]2(O)C1 [Compound 4c], which “CD69 expression versus parent compound” value (C57/bl6 mice) is on record?
Its value is “comparable”.

And the “stimulation of CD69 in splenocytes” value (C57/bl6 mice)?
The value was “strong stimulation of CD69 in splenocytes”.

What about the bolus toxicity (C57/bl6 mice) of the same compound?
Its bolus toxicity is “no bolus toxicity on mice even at the highest dosage”.

What about the survival of mice (C57/bl6 mice; [3]) of the same compound?
Its survival of mice is “survived”.

And the half-life at 400 μM [1]?
The half-life at 400 μM was > 168 h.

And the Ki (Novel PKCδ)?
The Ki was 9000 nM.

And the half-life at 400 μM (porcine liver esterase)?
Its half-life at 400 μM is 19 ± 2 h.

Which “concentration restoring cell viability to the level of uninfected controls” value [2] does the source give for CC(=O)O[C@@]12C[C@@H](C)[C@@]3(O)[C@@H](C=C(CO)C[C@]4(O)C(=O)C(C)=C[C@@H]34)[C@@H]1C2(C)C [prostratin] here?
Its value is “approximately 1 μM”.

And the “no sign of cytotoxicity up to” value [2]?
Its value is “about 25 μM”.

What does the source list for CCCCCC(=O)OCC1=C[C@H]2[C@@H]3C(C)(C)[C@]3(OC(=O)CC34CC5CC(CC(C5)C3)C4)C[C@@H](C)[C@]2(O)[C@@H]2C=C(C)C(=O)[C@@]2(O)C1 [Compound 4b]?
half-life at 400 μM [1]: > 1780 h; Ki (Novel PKCδ): > 2500 nM; Ki (Conventional PKCβI): > 2500 nM; half-life at 400 μM (porcine liver esterase): 2.4 ± 0.5 h

What does the source list for CCCCCCCCCC(=O)OCC1=C[C@@H]2C(=O)[C@]3(C=C(C)[C@H](OC(=O)c4ccc(Br)cc4C)[C@@]3(O)[C@@H]1O)[C@H](C)C[C@@H]1[C@H]2C1(C)C [Compound 7]?
half-life [1]: 2 h; Ki (Novel PKCδ; [4]): 11000 nM; half-life (porcine liver esterase): 2 h

Which half-life [1] does the source give for CC1=C[C@]23C(=O)[C@@H](C=C(CO)[C@@H](O)[C@]2(O)[C@H]1OC(=O)c1ccc(Br)cc1C)[C@H]1[C@@H](C[C@H]3C)C1(C)C [Compound 6, o-methyl-p-bromo-benzoate ingenol ester] here?
Its half-life is 18 h.

And the Ki (Novel PKCδ; [4])?
Its Ki is 1.1 nM.

What about the Ki (Conventional PKCβI; vs 3H-PDBu, read-out: PKC binding affinity, Ki, Conventional PKCβI) of the same compound?
Its Ki is 0.85 nM.

And the half-life (porcine liver esterase)?
The half-life was 1 h.

Which results are given for CC(=O)OCC1=C[C@H]2[C@@H]3C(C)(C)[C@]3(OC(=O)CC34CC5CC(CC(C5)C3)C4)C[C@@H](C)[C@]2(O)[C@@H]2C=C(C)C(=O)[C@@]2(O)C1 [Compound 4a]?
CD69 expression versus parent compound (C57/bl6 mice): more moderate levels of activation; stimulation of CD69 in splenocytes (C57/bl6 mice): strong stimulation of CD69 in splenocytes; bolus toxicity (C57/bl6 mice): no bolus toxicity on mice even at the highest dosage; survival of mice (C57/bl6 mice; [3]): survived; half-life at 400 μM [1]: > 168 h; Ki (Novel PKCδ): 9400 nM; half-life at 400 μM (porcine liver esterase): 27 ± 3 h

For CC1=C[C@H]2[C@@]3(O)[C@H](C)C[C@]4(OC(=O)CC56CC7CC(CC(C7)C5)C6)[C@H]([C@@H]3C=C(CO)C[C@]2(O)C1=O)C4(C)C [Compound 3, adamantyl prostratin], which survival of mice (C57/bl6 mice; [3]) is on record?
The survival of mice was “one mouse casualty at 60 pg and no survival beyond that dose”.

What about the “potency compared with prostratin” value (C57/bl6 mice; intravenous retro-orbital injection, 24 h) of the same compound?
The value was “higher potency than prostratin”.

With ^3H-phorbol-12,13-dibutyrate [^3H-PDBu] as the compound, how does the Kd (PKC) read?
Its Kd is 1.55 to 4.4 nM.

What does the source list for CC1=C[C@H]2[C@@]3(O)[C@H](C)C[C@]4(OC(=O)CC56CC7CC(CC(C7)C5)C6)[C@H]([C@@H]3C=C(COC(=O)c3ccccc3)C[C@]2(O)C1=O)C4(C)C [Compound 4d]?
half-life at 400 μM [1]: > 168 h; Ki (Novel PKCδ): > 2500 nM; Ki (Conventional PKCβI): > 500 nM; half-life at 400 μM (porcine liver esterase): 32 ± 9 h

Which half-life at 400 μM [1] does the source give for CCOC(=O)OCC1=C[C@H]2[C@@H]3C(C)(C)[C@]3(OC(=O)CC34CC5CC(CC(C5)C3)C4)C[C@@H](C)[C@]2(O)[C@@H]2C=C(C)C(=O)[C@@]2(O)C1 [Compound 4e] here?
The half-life at 400 μM was > 168 h.

What about the Ki (Novel PKCδ) of the same compound?
The Ki was 380 nM.

What about the half-life at 400 μM (porcine liver esterase) of the same compound?
Its half-life at 400 μM is 4.8 ± 0.6 h.
